Reference: patent publication US10533161B2, “NADPH oxidase proteins” (Universite Grenoble Alpes, priority 2014, dated 2020)
“Also recorded” adds a separate entry of the source.

Assays:
SpNox = assay: NADPH oxidase activity of SpNox by colorimetry (NBT reduction, 96-well plate); assay type: biochemical, Streptococcus pneumoniae; settings: absorbance at 560 nm, 5 concentrations 0.01-100 μM (DPI 0.005-50 μM), triplicate
Description: The oxidase activity is determined by measuring the kinetics of reduction of NBT by the O2.^− ions, by monitoring the increase in absorbance at 560 nm (molar extinction coefficient of NBT: ε560=30 000 mM^−1.cm^−1). It is also possible to use a wavelength of 550 nm SpNox is incubated with a reaction mixture containing the molecule to be tested, NBT, FAD and the protein storage buffer for 5 to 20 min at 25° C. The reaction is then started by adding NADPH.
The NADPH oxidase activity is then quantified at the end point by determining the intensity of the coloration compared to a positive control. The positive control is carried out with the SpNox protein alone, without the molecule to be tested.
The compounds present in each well of the plate are, as final concentration: • 0.1 μg of SpNox; • 2 μM of FAD; • 125 μM of NBT; • 150 μM NADPH; • Molecule A; • SpNox storage buffer q.s. 200 μL.
All the experiments were carried out in triplicate and each molecule was tested at 5 different concentrations. The concentration range is deliberately wide so as to be able to include the possible IC50 values of each molecule. The concentrations selected are: 0.01-0.1-1-10-100 μM.

eukaryotic NOX = settings: commercial molecules targeting the eukaryotic NOX; cited from earlier work

Row | SMILES | Effect on the NADPH oxidase activity of SpNox (SpNox) | Property (NADPH oxidase activity of the eukaryotic NOX) (eukaryotic NOX)
1 | c1ccc2c(c1)[IH]c1ccccc1-2 [DPI, diphenyleneiodonium chloride] | inhibits the reaction; also recorded: inhibitory effect; also recorded: inhibitors of SpNox | Inhibitor
2 | Cc1ccccc1-n1sc2cc(F)ccc2c1=O [Thr101] | inhibitors of SpNox | Inhibitor
3 | CCCCC/C=C\C/C=C\C/C=C\C/C=C\CCCC(=O)O [Arachidonic acid (AA), Arachidonic acid] | stimulates the production of superoxide; also recorded: activator of SpNox | Activator
4 | O=c1c2ccccc2[se]n1-c1ccccc1 [Ebselen] | inhibitors of SpNox | Inhibitor
5 | CC1=C(O)C(=O)C=C2C1=CC=C1[C@@]2(C)CC[C@@]2(C)[C@@H]3C[C@](C)(C(=O)O)CC[C@]3(C)CC[C@]12C [Celastrol] | inhibitors of SpNox | Inhibitor
6 | Oc1cc(O)c2c(c1)O[C@H](c1ccc(O)c(O)c1)[C@@H](O)C2 [Catechin] | inhibitors of SpNox | Inhibitor
7 | O=C(O[C@@H]1Cc2c(O)cc(O)cc2O[C@@H]1c1ccc(O)c(O)c1)c1cc(O)c(O)c(O)c1 [Epicatechin gallate] | inhibitors of SpNox | Inhibitor
8 | c1ccc(Cn2nnc3c(Sc4nc5ccccc5o4)ncnc32)cc1 [VAS2870] |  | Inhibitor
